# US20100137449A1, “SUBSTITUTED 1,3-CYCLOPENTADIONE MULTI-TARGET PROTEIN KINASE MODULATORS OF CANCER, ANGIOGENESIS AND THE INFLAMMATORY PATHWAYS ASSOCIATED THEREWITH” (METAPROTEOMICS, LLC, priority 2007, published 2010)
# Tests used:
# Test in all cases: KinaseProfiler Assay
# SAPK2b(h) = SAPK2b(h) (Homo sapiens, UniProt Q15759)
# CaMKIδ(h) = CaMKIδ(h) (Homo sapiens, UniProt Q8IU85)
# cSRC(h) = cSRC(h) (Homo sapiens, UniProt P12931)
# SRPK1(h) = SRPK1(h) (Homo sapiens, UniProt Q96SB4)
# EphA2(h) = EphA2(h) (Homo sapiens, UniProt P29317)
# FGFR2(N549H)(h) = FGFR2(N549H)(h) (Homo sapiens, UniProt P21802, N549H)
# PDK1(h) = molecular target: T1, PDK1(h) (Homo sapiens, UniProt O15530)
# T1 sequence (O15530 1-556): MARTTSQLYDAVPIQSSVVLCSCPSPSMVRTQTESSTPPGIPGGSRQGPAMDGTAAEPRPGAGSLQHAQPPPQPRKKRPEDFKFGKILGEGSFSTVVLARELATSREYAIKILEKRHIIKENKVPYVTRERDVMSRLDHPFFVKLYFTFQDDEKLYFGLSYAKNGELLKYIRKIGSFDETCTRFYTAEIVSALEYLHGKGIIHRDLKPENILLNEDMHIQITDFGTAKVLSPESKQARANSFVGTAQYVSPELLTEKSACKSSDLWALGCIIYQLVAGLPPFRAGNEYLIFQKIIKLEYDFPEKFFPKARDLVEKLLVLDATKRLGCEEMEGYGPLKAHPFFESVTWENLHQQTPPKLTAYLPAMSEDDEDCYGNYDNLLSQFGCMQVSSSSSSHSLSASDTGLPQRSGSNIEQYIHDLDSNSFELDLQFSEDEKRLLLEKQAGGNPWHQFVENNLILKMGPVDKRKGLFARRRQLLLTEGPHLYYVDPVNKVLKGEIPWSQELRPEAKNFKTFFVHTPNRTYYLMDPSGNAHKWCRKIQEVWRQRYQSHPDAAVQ
# ULK2(h) = molecular target: T2, ULK2(h) (Homo sapiens, UniProt Q8IYT8)
# T2 sequence (Q8IYT8 1-1036): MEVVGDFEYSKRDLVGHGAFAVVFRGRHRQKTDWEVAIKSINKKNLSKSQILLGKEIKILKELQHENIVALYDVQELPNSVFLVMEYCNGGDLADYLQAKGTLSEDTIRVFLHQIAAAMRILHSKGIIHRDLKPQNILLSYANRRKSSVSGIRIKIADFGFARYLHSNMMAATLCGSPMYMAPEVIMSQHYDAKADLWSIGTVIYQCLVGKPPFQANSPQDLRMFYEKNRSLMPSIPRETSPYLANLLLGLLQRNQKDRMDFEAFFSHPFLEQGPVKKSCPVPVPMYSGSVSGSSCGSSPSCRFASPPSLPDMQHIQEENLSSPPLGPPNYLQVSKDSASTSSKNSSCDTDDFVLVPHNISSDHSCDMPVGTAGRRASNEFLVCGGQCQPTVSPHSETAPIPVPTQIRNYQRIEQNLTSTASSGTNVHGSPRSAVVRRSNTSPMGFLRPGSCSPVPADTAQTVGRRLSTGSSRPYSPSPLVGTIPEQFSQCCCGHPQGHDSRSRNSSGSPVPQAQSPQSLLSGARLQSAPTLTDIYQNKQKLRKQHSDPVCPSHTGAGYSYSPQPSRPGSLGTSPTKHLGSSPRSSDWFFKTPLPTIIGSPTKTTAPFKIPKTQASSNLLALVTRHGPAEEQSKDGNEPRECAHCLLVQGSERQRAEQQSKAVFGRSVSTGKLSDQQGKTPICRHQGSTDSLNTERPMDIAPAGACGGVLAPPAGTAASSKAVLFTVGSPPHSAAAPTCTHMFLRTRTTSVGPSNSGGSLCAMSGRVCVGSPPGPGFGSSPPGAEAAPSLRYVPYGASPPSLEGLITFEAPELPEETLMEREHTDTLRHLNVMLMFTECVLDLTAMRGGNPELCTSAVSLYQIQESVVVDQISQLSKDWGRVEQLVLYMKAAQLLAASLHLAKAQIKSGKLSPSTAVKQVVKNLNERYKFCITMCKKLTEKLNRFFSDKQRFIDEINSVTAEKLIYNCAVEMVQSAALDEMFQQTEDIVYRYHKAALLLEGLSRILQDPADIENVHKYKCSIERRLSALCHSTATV
# MAPK1(h), ERK1 = MAPK1(h), ERK1 (Homo sapiens, UniProt P27361)
# Arg(h) = Arg(h) (Homo sapiens, UniProt P42684)
# Chain of Arg(h) (P42684 whole entry): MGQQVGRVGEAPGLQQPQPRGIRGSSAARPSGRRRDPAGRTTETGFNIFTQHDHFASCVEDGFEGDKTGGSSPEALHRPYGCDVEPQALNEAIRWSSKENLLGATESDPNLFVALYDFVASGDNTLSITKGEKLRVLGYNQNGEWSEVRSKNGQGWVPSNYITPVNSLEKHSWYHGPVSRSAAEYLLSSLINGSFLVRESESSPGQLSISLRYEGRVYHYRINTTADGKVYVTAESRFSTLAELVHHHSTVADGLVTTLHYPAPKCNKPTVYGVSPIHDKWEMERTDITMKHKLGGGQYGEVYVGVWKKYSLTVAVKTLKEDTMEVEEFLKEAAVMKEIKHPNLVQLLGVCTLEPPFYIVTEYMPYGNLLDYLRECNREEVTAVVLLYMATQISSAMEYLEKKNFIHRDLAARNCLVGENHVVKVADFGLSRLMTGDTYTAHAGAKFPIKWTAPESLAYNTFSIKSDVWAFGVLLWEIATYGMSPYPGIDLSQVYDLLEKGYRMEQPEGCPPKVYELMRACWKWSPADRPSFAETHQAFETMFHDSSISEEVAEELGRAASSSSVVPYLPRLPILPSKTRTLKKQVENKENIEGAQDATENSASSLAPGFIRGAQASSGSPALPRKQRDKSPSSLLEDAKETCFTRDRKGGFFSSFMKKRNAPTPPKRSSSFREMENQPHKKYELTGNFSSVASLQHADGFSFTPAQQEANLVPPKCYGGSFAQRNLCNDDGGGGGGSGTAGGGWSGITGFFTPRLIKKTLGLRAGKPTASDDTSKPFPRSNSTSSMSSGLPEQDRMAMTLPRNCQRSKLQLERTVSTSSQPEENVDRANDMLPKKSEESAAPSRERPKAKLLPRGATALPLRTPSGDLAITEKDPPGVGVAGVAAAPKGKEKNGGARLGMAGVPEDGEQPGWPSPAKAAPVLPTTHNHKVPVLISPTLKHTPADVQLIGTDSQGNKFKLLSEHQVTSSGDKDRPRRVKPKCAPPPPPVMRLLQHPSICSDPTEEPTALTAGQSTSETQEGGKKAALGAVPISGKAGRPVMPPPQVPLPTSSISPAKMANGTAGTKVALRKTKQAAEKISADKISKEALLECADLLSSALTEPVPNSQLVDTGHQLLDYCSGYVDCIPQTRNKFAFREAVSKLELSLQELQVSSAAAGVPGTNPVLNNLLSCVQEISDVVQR
# Chain of cSRC(h) (P12931 whole entry): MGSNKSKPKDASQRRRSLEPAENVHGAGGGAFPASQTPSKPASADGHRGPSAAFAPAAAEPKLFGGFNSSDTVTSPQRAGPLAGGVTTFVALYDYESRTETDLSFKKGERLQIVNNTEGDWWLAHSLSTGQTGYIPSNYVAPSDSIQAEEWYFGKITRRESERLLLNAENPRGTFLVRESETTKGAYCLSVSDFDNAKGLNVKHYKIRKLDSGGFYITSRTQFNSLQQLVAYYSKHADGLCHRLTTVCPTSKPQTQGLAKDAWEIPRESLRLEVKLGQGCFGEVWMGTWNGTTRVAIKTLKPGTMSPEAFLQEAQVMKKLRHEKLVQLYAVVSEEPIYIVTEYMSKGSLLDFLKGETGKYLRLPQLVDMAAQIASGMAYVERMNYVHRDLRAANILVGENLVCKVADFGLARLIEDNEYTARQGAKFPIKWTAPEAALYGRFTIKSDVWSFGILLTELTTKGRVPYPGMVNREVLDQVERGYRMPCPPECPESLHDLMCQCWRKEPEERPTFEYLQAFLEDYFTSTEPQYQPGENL
# Chain of MAPK1(h), ERK1 (P27361 whole entry): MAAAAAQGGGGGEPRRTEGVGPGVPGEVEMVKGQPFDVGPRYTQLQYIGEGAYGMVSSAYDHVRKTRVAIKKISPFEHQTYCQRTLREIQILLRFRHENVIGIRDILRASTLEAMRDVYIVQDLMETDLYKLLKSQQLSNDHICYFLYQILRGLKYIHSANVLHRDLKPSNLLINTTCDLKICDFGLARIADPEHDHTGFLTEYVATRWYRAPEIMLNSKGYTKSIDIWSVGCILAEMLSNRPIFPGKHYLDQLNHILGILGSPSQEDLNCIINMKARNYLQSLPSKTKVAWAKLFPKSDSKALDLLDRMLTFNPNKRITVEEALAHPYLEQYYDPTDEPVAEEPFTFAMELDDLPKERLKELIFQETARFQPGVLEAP
# Chain of EphA2(h) (P29317 24-976): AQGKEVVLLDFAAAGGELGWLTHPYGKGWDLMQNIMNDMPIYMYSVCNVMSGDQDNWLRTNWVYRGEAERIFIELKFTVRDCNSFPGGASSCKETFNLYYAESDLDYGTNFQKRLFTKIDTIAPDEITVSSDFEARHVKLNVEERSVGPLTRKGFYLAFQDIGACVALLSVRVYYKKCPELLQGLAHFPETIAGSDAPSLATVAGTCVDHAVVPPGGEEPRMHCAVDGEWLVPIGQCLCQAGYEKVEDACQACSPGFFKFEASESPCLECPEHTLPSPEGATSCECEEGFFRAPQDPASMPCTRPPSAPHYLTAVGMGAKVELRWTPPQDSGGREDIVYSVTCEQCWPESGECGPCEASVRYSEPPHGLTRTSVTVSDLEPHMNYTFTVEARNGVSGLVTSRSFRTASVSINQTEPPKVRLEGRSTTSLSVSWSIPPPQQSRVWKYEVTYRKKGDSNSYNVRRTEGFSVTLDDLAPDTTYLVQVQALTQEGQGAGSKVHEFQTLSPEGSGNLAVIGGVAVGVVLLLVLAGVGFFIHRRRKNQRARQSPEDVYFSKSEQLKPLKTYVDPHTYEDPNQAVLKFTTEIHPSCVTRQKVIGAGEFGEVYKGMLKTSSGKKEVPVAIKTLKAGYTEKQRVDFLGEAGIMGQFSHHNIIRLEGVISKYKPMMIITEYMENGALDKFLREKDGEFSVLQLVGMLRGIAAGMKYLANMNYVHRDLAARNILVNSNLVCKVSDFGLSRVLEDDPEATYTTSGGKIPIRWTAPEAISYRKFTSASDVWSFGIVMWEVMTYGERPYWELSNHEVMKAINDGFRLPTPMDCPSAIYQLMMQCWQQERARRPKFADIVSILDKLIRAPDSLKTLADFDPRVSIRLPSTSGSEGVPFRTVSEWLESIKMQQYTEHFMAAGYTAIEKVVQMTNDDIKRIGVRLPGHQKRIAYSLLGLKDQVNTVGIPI
# Chain of FGFR2(N549H)(h) (P21802 22-821 N549H): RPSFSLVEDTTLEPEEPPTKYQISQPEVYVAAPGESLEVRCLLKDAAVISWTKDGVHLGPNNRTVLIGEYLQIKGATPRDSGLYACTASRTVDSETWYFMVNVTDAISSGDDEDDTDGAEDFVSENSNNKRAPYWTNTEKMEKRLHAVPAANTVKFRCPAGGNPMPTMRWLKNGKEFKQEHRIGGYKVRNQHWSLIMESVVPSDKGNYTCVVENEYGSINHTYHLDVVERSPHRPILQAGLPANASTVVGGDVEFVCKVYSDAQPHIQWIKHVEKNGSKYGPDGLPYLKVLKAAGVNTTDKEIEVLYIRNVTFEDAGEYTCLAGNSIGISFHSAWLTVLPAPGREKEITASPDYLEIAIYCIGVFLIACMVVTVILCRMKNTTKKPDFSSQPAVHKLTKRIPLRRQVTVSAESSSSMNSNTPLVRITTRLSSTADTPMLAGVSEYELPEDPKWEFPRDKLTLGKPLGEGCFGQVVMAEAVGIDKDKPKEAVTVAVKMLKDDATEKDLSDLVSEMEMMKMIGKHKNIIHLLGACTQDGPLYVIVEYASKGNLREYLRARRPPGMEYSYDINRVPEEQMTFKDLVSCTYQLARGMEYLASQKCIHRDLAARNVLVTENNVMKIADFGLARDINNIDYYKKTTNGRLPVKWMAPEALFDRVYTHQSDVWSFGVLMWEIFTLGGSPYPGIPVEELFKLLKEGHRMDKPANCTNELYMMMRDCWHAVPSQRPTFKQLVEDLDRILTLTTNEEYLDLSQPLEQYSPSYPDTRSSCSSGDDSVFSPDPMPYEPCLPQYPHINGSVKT
# Chain of SAPK2b(h) (Q15759 whole entry): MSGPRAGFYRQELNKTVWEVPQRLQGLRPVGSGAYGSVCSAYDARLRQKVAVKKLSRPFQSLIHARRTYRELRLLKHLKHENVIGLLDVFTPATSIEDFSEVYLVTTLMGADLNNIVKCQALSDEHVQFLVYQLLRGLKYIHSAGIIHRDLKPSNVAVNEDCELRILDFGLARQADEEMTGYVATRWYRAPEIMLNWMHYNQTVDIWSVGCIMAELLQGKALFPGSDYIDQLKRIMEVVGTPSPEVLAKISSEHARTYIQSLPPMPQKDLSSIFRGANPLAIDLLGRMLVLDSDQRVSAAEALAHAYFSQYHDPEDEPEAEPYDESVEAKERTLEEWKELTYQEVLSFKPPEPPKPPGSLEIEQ
# Chain of CaMKIδ(h) (Q8IU85 whole entry): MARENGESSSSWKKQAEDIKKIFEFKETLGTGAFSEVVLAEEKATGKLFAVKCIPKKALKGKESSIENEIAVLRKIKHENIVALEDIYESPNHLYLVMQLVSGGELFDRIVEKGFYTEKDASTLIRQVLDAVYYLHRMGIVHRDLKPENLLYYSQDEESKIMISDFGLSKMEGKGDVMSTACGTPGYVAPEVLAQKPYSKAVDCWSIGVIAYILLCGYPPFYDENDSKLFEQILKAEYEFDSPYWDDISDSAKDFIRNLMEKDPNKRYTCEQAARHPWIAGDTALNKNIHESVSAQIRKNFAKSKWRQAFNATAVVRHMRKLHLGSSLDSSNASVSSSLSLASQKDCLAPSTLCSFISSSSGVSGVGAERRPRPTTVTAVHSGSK
smiles,measurement,setting,value
"CC(C)CCC(=O)[C@]1(O)C(O)=C(C(=O)C(C)C)C(=O)[C@H]1CCC(C)C [TH2, tetrahydroiso-cohumulone]",kinase inhibition,SAPK2b(h); 1 μg/ml,117% of control
same,kinase inhibition,SAPK2b(h); 5 μg/ml,110% of control
same,kinase inhibition,SAPK2b(h); 25 μg/ml,108% of control
same,kinase inhibition,SAPK2b(h); 50 μg/ml,108% of control
same,kinase inhibition,SAPK2b(h); 100 μg/ml,111% of control
same,kinase inhibition,CaMKIδ(h); 1 μg/ml,95% of control
same,kinase inhibition,CaMKIδ(h); 5 μg/ml,88% of control
same,kinase inhibition,CaMKIδ(h); 25 μg/ml,101% of control
same,kinase inhibition,CaMKIδ(h); 50 μg/ml,105% of control
same,kinase inhibition,CaMKIδ(h); 100 μg/ml,98% of control
same,kinase inhibition,cSRC(h); 1 μg/ml,114% of control
same,kinase inhibition,cSRC(h); 5 μg/ml,114% of control
same,kinase inhibition,cSRC(h); 25 μg/ml,108% of control
same,kinase inhibition,cSRC(h); 50 μg/ml,101% of control
same,kinase inhibition,cSRC(h); 100 μg/ml,87% of control
same,kinase inhibition,SRPK1(h); 1 μg/ml,47% of control
same,kinase inhibition,SRPK1(h); 5 μg/ml,89% of control
same,kinase inhibition,SRPK1(h); 25 μg/ml,61% of control
same,kinase inhibition,SRPK1(h); 50 μg/ml,53% of control
same,kinase inhibition,SRPK1(h); 100 μg/ml,45% of control
same,kinase inhibition,EphA2(h); 1 μg/ml,102% of control
same,kinase inhibition,EphA2(h); 5 μg/ml,104% of control
same,kinase inhibition,EphA2(h); 25 μg/ml,105% of control
same,kinase inhibition,EphA2(h); 50 μg/ml,99% of control
same,kinase inhibition,EphA2(h); 100 μg/ml,92% of control
same,kinase inhibition,FGFR2(N549H)(h); 1 μg/ml,110% of control
same,kinase inhibition,FGFR2(N549H)(h); 5 μg/ml,102% of control
same,kinase inhibition,FGFR2(N549H)(h); 25 μg/ml,103% of control
same,kinase inhibition,FGFR2(N549H)(h); 50 μg/ml,103% of control
same,kinase inhibition,FGFR2(N549H)(h); 100 μg/ml,82% of control
same,kinase inhibition,PDK1(h); 1 μg/ml,122% of control
same,kinase inhibition,PDK1(h); 5 μg/ml,123% of control
same,kinase inhibition,PDK1(h); 25 μg/ml,102% of control
same,kinase inhibition,PDK1(h); 50 μg/ml,87% of control
same,kinase inhibition,PDK1(h); 100 μg/ml,69% of control
same,kinase inhibition,ULK2(h); 1 μg/ml,102% of control
same,kinase inhibition,ULK2(h); 5 μg/ml,52% of control
same,kinase inhibition,ULK2(h); 25 μg/ml,77% of control
same,kinase inhibition,ULK2(h); 50 μg/ml,106% of control
same,kinase inhibition,ULK2(h); 100 μg/ml,105% of control
same,kinase inhibition,"MAPK1(h), ERK1; 1 μg/ml",93% of control
same,kinase inhibition,"MAPK1(h), ERK1; 5 μg/ml",83% of control
same,kinase inhibition,"MAPK1(h), ERK1; 25 μg/ml",72% of control
same,kinase inhibition,"MAPK1(h), ERK1; 50 μg/ml",75% of control
same,kinase inhibition,"MAPK1(h), ERK1; 100 μg/ml",67% of control
same,kinase inhibition,Arg(h); 1 μg/ml,92% of control
same,kinase inhibition,Arg(h); 5 μg/ml,92% of control
same,kinase inhibition,Arg(h); 25 μg/ml,69% of control
same,kinase inhibition,Arg(h); 50 μg/ml,53% of control
same,kinase inhibition,Arg(h); 100 μg/ml,43% of control
